# From patent US7968128B2, “Plant extract compositions for affecting sleep” (VIVA Pharmaceutical Inc., priority 2008, dated 2011)
# How the values were obtained:
# Format in all cases: in vivo, Swiss mice
# [1] = test system: mice; test: Inclined plane test
# Experimental: (§1) Male and female Swiss mice having weights between about 18 to 22 g were used in the Examples provided below. Mice were housed in groups of 10 mice in a breeding room having a controlled temperature of about 22±2° C. Each group had free access to standard diet pellets and tap water.
# (§2) Each of the extract combinations “BS” and “BY” produced in Example 1, was prepared for oral administration (PO) by ultrasonically dispersing each extract in distilled water containing about 0.5% Tween-80. Diazepam was also prepared for administration by ultrasonically dispersing the Diazepam in distilled water containing about 0.5% Tween-80.
# Each of the BY, BS, and Diazepam compositions was administered orally to separate groups of mice at a dosage of 10 mL/kg body weight. […]
# Effects of the BS and BY compositions on the motor functions of mice were evaluated using an inclined plane test.
# The inclined plane consisted of two rectangular steel boards connected at one end by a hinge. […] The maximum inclination of the plane at which a mouse could maintain itself in position for at least 5 seconds was recorded, and interpreted to represent the mouse's functional ability. The test was performed in triplicate for each mouse and the mean value was recorded as the maximum inclination.
# [2] = test system: mice; test: Locomotor activity measurements (square arena); conditions: for Locomotor activity count: dose 1 mg/kg oral, mean ± SE, n = 10
# Experimental: as §1, §2
# (§3) Each of the BY, BS, and Diazepam compositions was administered orally to separate groups of mice at a dosage of 10 mL/kg body weight.
# (§4) Dosages of the BS, BY, Diazepam compositions, and the sterile distilled water were administered orally to groups of mice, wherein each group comprised at least 10 mice.
# The effects of the BS treatments and the BY treatments on inhibition of central nervous system were evaluated by measurements of the locomotor activities of mice.
# Each mouse was placed in the center of a square arena having dimensions of approximately 60 cm×60 cm×35 cm. […] The arena was illuminated using red 25 W bulbs on the ceiling. The total number of squares each mouse entered in a 5 minute period was recorded by an overhead video camera. The camera was linked to a monitor and video recorder in an adjacent laboratory.
# The locomotor activity of the mice were recorded both before and 30-minutes, 60-minutes, 120-minutes, and 180-minutes after administration of one of BS, BY, Diazepam, and the control.
# All locomotor activity recordings were carried out with the observer unaware of the treatment that was administered to each of the mice.
# [3] = test system: mice; test: Traction test
# Experimental: as §1
# Each of the extract combinations “BS” and “BY” produced in Example 1, was prepared for oral administration (PO) by ultrasonically dispersing each extract in distilled water containing about 0.5% Tween-80. Diazepam was also prepared for administration by ultrasonically dispersing the Diazepam in distilled water containing about 0.5% Tween-80. […]
# The effects of the BS and BY compositions on inhibition of muscle coordination systems were evaluated using a traction test.
# A wire having a diameter of about 1.6 mm and length of about 30 cm was stretched and secured horizontally at a height of about 30 cm above a surface. […] The duration of time each mouse clung to the wire was recorded up to a maximum of 60 seconds.
# The test was performed about 60 minutes after the administration of one of the BS, BY, Diazepam, and the control compositions. […] The durations of clinging time measured for each group of mice were calculated using the mean value of triplicates for each mouse. If the duration of clinging time was greater than 60 seconds, the mouse was released from the wire, and the clinging time was recorded 60 seconds.
# [4] = test system: mice; test: Sodium barbital induced sleep time measurement
# Experimental: as §1, §2, §3, §4
# Mice were administered 90 mg/kg sodium barbital via intraperitoneal injection (ip). Mice were then positioned on their back. The time that elapsed between administration of the sodium barbital and when each animal lost their righting reflex represented the time period between latency to the onset of sleep. The BS, BY, Diazepam, and the control treatments were administered to separate groups of mice. Each group of mice received their treatment about 7 days prior to the administration of the sodium barbital. The duration of sleeping time was calculated as the time interval between the loss of righting reflex to the time of recovery of this reflex. In studying the effects of the BS and BY extracts, the comparison of the durations of sleeping time between mice receiving the BS, BY, Diazepam treatments and the control treatments, was used as the main criterion of measurement.
# [5] = dose 1.0 mg/kg oral, sodium barbital 90 mg/kg ip, mean ± SE, n = 10
smiles,measurement,setting,value
CN1C(=O)CN=C(c2ccccc2)c2cc(Cl)ccc21 [Diazepam],Maximum inclination,"[1]; dose 9 mg/kg oral, position held at least 5 seconds, mean ± SE, n = 10",51.5 ± 0.9 degrees
same,degrees of inclination compared to control (in words),[1]; doses of Table 4,markedly reduced
same,effects on the locomotor activity of the mice (in words),[2]; all doses and times of Table 2,"None of the BS, BY and Diazepam compositions had any significant effects"
same,Locomotor activity count,"[2]; 0 minutes (before administration), squares entered in 5 min",80.4 ± 6.7
same,Locomotor activity count,[2]; 30 minutes after administration,68.9 ± 4.9
same,Locomotor activity count,[2]; 60 minutes after administration,56.7 ± 3.8
same,Locomotor activity count,[2]; 120 minutes after administration,52.6 ± 3.6
same,Locomotor activity count,[2]; 180 minutes after administration,47.6 ± 3.4
same,Duration of clinging,"[3]; dose 9 mg/kg oral, about 60 minutes after administration, maximum 60 seconds, mean ± SE, n = 10",19.6 ± 4.9 s
same,durations of clinging time compared to control (in words),[3]; doses of Table 3,markedly reduced
same,sodium barbital-induced sleeping time compared to the controls (in words),[4]; dosage 1.0 mg/kg,significantly prolonged
same,Duration of Sleep,[4]; [5],72.8 ± 7.5 min
same,Sleep latency,[4]; [5],169.1 ± 12.4 s
